We go through 11 compounds from ChEMBL document CHEMBL1201862, “PubChem BioAssay data set” (2004).

Structures are written as SMILES.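 In this assay, cells in 96-well plates receive the compound at five concentrations for 48 hours. Endpoints are linearly interpolated between the surrounding concentrations. The concentration for 50% growth inhibition is given as GI50.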 The source made the active and inactive calls. No stated cut-off is given here; in the data, active = GI50 up to about 1.1 µM and inactive = higher.

Test systems include COLO 205; HCT-15; HOP-62; HOP-92; HT-29; K562; KM12; MDA-MB-231; NCI-H23; NCI-H460; SF-268; SK-MEL-2; SK-MEL-5; SK-OV-3; SN12C; SR; SW-620; T47D; UACC-62.
Common to all, as to assay: growth of human tumour cells (NCI), 48 h

Take `COc1ccc2[nH]c(C(=O)N3CC(CCl)c4ccc([N+](=O)[O-])cc43)cc2c1` (stereo not given): the GI50 in the experiment on COLO 205 was > 100 µM (inactive); in the experiment on HCT-15, > 100 µM; in the experiment on HOP-62, > 100 µM (inactive); in the experiment with HOP-92 it was > 100 µM (inactive); in the experiment on HT-29 it was > 95.7 µM (inactive); in the experiment with K562, > 100 µM (inactive). Further, the GI50 was > 31.8 µM (inactive) with KM12; > 23.4 µM (inactive) in the experiment with MDA-MB-231; > 100 µM (inactive) in the experiment with NCI-H23; > 100 µM (inactive) in the experiment with NCI-H460; > 100 µM (inactive) with SF-268; > 100 µM (inactive) with SK-MEL-2. Also, the GI50 with SK-MEL-5 is > 100 µM (inactive); in the experiment with SK-OV-3, > 100 µM (inactive); in the experiment with SN12C, > 100 µM (inactive); in the experiment with SR, > 100 µM (inactive); in the experiment with SW-620, > 100 µM (inactive); in the experiment on T47D, > 21.6 µM (inactive). In addition, the GI50 in the experiment with UACC-62 is > 100 µM (inactive).
Regarding `Oc1ccc(O)c(Cc2ccccc2)c1`, the GI50 was 17.4 µM (inactive) in the experiment on COLO 205; 13.6 µM in the experiment on HCT-15; 27.9 µM (inactive) in the experiment with HOP-62; 16.3 µM (inactive) with HOP-92; 37 µM (inactive) in the experiment with HT-29; 10.6 µM (inactive) in the experiment on K562. The GI50 in the experiment with KM12 is 19.1 µM (inactive); in the experiment on MDA-MB-231, 19 µM (inactive); with NCI-H23 it was 26.4 µM (inactive); in the experiment with NCI-H460 it was 20.7 µM (inactive); with SF-268 it was 12.5 µM (inactive); in the experiment with SK-MEL-2, 18.7 µM (inactive). The GI50 is 17.3 µM (inactive) in the experiment with SK-MEL-5; 32.8 µM (inactive) with SK-OV-3; 18.4 µM (inactive) in the experiment on SN12C; 2.32 µM (inactive) in the experiment with SR; 21.3 µM (inactive) in the experiment on SW-620; 0.0887 µM (active) with T47D. Besides, the GI50 in the experiment on UACC-62 is 20.2 µM (inactive).
On to `O=C1Nc2ccccc2/C1=N/NC(=S)Nc1ccc([N+](=O)[O-])cc1`, for which the GI50 is 10.3 µM (inactive) in the experiment on COLO 205; 2.33 µM with HCT-15; 4.62 µM (inactive) with HOP-62; 13.2 µM (inactive) with HOP-92; 18.4 µM (inactive) in the experiment on HT-29; 2.88 µM (inactive) with K562. Further, the GI50 in the experiment with KM12 was 10.8 µM (inactive); in the experiment with MDA-MB-231, 0.208 µM (active); in the experiment on NCI-H23 it was 13.8 µM (inactive); in the experiment with NCI-H460, 2.51 µM (inactive); in the experiment on SF-268, 13 µM (inactive); with SK-MEL-2 it was 4.25 µM (inactive). For the same compound, the GI50 with SK-MEL-5 was 10.4 µM (inactive); in the experiment on SK-OV-3 it was 4.76 µM (inactive); in the experiment with SN12C it was 16.9 µM (inactive); with SR, 4.72 µM (inactive); in the experiment with SW-620 it was 4.01 µM (inactive); in the experiment with T47D, 10.4 µM (inactive). Moreover, in the experiment with UACC-62, the GI50 was 8.47 µM (inactive).
For the compound `O=[N+]([O-])c1ccc(-n2nc3ccc4c(no[n+]4[O-])c3[n+]2[O-])c([N+](=O)[O-])c1`, the GI50 in the experiment with COLO 205 was 1.54 µM (inactive); in the experiment with HCT-15, 2.69 µM; in the experiment with HOP-62, 3.77 µM (inactive); with HOP-92, 2.96 µM (inactive); with HT-29, 4.69 µM (inactive); in the experiment with K562, 2.14 µM (inactive). The GI50 in the experiment with KM12 is 1.79 µM (inactive); in the experiment on MDA-MB-231 it was 2.27 µM (inactive); in the experiment with NCI-H23 it was 2.19 µM (inactive); in the experiment with NCI-H460, 5.55 µM (inactive); in the experiment with SF-268 it was 5.05 µM (inactive); in the experiment on SK-MEL-2 it was 3.56 µM (inactive). Besides, the GI50 was 2.79 µM (inactive) in the experiment with SK-MEL-5; 9.51 µM (inactive) in the experiment on SK-OV-3; 2.56 µM (inactive) in the experiment with SN12C; 1.91 µM (inactive) with SR; 2.1 µM (inactive) in the experiment on SW-620; 2.49 µM (inactive) in the experiment with T47D. In addition, the GI50 in the experiment with UACC-62 was 2.73 µM (inactive).
Regarding `COc1ccc(-c2cc(=O)c3c(O)cc(O)cc3o2)cc1OC`, the GI50 in the experiment with COLO 205 is > 100 µM (inactive); with HCT-15, > 100 µM; with HOP-62, 24 µM (inactive); in the experiment with HOP-92 it was 2.3 µM (inactive); in the experiment on HT-29 it was 81.8 µM (inactive); with K562, 92.7 µM (inactive). Further, the GI50 in the experiment with KM12 was 33 µM (inactive); in the experiment on MDA-MB-231 it was > 100 µM (inactive); with NCI-H23 it was > 100 µM (inactive); in the experiment with NCI-H460, 44.7 µM (inactive); in the experiment with SF-268, 28.4 µM (inactive); in the experiment on SK-MEL-2 it was > 100 µM (inactive). The GI50 in the experiment on SK-MEL-5 was 23 µM (inactive); with SK-OV-3 it was 47.4 µM (inactive); in the experiment on SN12C, 59.6 µM (inactive); with SR it was 9.2 µM (inactive); with SW-620, > 100 µM (inactive); in the experiment on T47D, 71.9 µM (inactive). The GI50 in the experiment with UACC-62 is 61.4 µM (inactive).
As for `O=S(=O)(c1cccc(C(F)(F)F)c1)N1c2ccccc2-n2cccc2C1c1cccnc1` (stereo not given), the GI50 with COLO 205 is 16.5 µM (inactive); with HCT-15, 22 µM; in the experiment on HOP-62 it was > 43.6 µM (inactive); in the experiment on HOP-92, 26.9 µM (inactive); in the experiment on HT-29, 18.1 µM (inactive); in the experiment on K562, 9.12 µM (inactive). In addition, the GI50 with KM12 is 19.2 µM (inactive); in the experiment on MDA-MB-231 it was > 36.8 µM (inactive); in the experiment with NCI-H23, 8.49 µM (inactive); in the experiment on NCI-H460 it was 22.9 µM (inactive); with SF-268, > 43.2 µM (inactive); in the experiment on SK-MEL-2, 17.7 µM (inactive). The GI50 with SK-MEL-5 is 8.09 µM (inactive); in the experiment with SK-OV-3, > 46.9 µM (inactive); in the experiment with SN12C, > 42.4 µM (inactive); with SR it was 6.71 µM (inactive); in the experiment on SW-620, 16.5 µM (inactive); in the experiment with T47D, 7.03 µM (inactive). The GI50 in the experiment with UACC-62 is 13.9 µM (inactive).
On to `CC1(C)CCC(C)(C)c2cc(C(=O)Nc3ccc(C(=O)O)cc3)ccc21`, for which the GI50 was 18 µM (inactive) in the experiment on COLO 205; 22.7 µM in the experiment on HCT-15; 18.7 µM (inactive) in the experiment with HOP-62; 27.1 µM (inactive) in the experiment on HOP-92; 20.7 µM (inactive) with HT-29; 22.8 µM (inactive) in the experiment on K562. The GI50 in the experiment with KM12 is 26.5 µM (inactive); in the experiment with MDA-MB-231, 22.4 µM (inactive); with NCI-H23, 17.9 µM (inactive); in the experiment on NCI-H460 it was 19.9 µM (inactive); in the experiment on SF-268, 27.3 µM (inactive); with SK-MEL-2, 22.1 µM (inactive). For the same compound, the GI50 in the experiment with SK-MEL-5 was 23.6 µM (inactive); in the experiment on SK-OV-3, 19.8 µM (inactive); in the experiment with SN12C, 31.8 µM (inactive); with SR, 15 µM (inactive); in the experiment on SW-620, 36.7 µM (inactive); with T47D, 15.5 µM (inactive). Besides, the GI50 in the experiment on UACC-62 was 17.3 µM (inactive).
For `COc1cc2c(cc1Cc1c(F)cccc1Cl)nc(-c1c(F)cccc1Cl)n2Cc1c(F)cccc1Cl`, the GI50 in the experiment on COLO 205 was 44.8 µM (inactive); in the experiment on HCT-15 it was 62.7 µM; in the experiment with HOP-62 it was 36.1 µM (inactive); with HOP-92, 2.64 µM (inactive); with HT-29 it was 16.5 µM (inactive); with K562, 45.3 µM (inactive). Besides, the GI50 in the experiment on KM12 is 28.4 µM (inactive); in the experiment on MDA-MB-231, 31.8 µM (inactive); in the experiment on NCI-H23, 19.8 µM (inactive); in the experiment on NCI-H460 it was 22.5 µM (inactive); with SF-268 it was 58.9 µM (inactive); with SK-MEL-2, 12.6 µM (inactive). Besides, the GI50 in the experiment on SK-MEL-5 is 13.5 µM (inactive); with SK-OV-3 it was 20.8 µM (inactive); with SN12C, 20.9 µM (inactive); in the experiment with SR it was 26.7 µM (inactive); in the experiment on T47D it was 10.2 µM (inactive); with UACC-62, 56.4 µM (inactive).
For the compound `COCN1C(=O)[C@@H]2CCCN2C(=O)c2ccc(Cl)cc21`, the GI50 in the experiment with COLO 205 is > 100 µM (inactive); in the experiment with HCT-15, > 100 µM; in the experiment on HOP-62, > 100 µM (inactive); in the experiment on HOP-92, > 100 µM (inactive); in the experiment on HT-29 it was > 100 µM (inactive); in the experiment on K562 it was > 100 µM (inactive). For the same compound, the GI50 with KM12, with MDA-MB-231, in the experiment on NCI-H23, in the experiment with NCI-H460, in the experiment with SF-268 and in the experiment on SK-MEL-2 was > 100 µM (inactive) each time. Further, the GI50 with SK-OV-3, with SN12C, in the experiment on SR, in the experiment on SW-620, in the experiment on T47D and in the experiment with UACC-62 was > 100 µM (inactive) in each case.
For the compound `[O-][S+]1c2ccccc2SCSc2ccccc21`, the GI50 is > 100 µM (inactive) with COLO 205; > 100 µM in the experiment with HCT-15; > 100 µM (inactive) in the experiment with HOP-62; 14.8 µM (inactive) with HOP-92; > 100 µM (inactive) in the experiment on HT-29; 16.7 µM (inactive) in the experiment on K562. Besides, the GI50 with KM12, with MDA-MB-231, with NCI-H23, with NCI-H460, with SF-268 and in the experiment with SK-MEL-2 was > 100 µM (inactive) in each case. Moreover, the GI50 in the experiment on SK-MEL-5 was 76.6 µM (inactive); in the experiment on SK-OV-3 it was > 100 µM (inactive); with SN12C it was > 100 µM (inactive); with SR, 46.2 µM (inactive); in the experiment on T47D, 97.7 µM (inactive); with UACC-62, > 100 µM (inactive).
Take `CSCCCNC(=O)c1csc(-c2csc(C(CNC(=O)OC(C)(C)C)CNC(=O)OC(C)(C)C)n2)n1`: the GI50 with COLO 205 was 34 µM (inactive); in the experiment with HCT-15, 43.4 µM; with HOP-62, 33.7 µM (inactive); in the experiment with HOP-92 it was 43 µM (inactive); in the experiment on K562, 33.6 µM (inactive); in the experiment on KM12, 31 µM (inactive). Further, the GI50 in the experiment on MDA-MB-231 was 57.8 µM (inactive); in the experiment with NCI-H23 it was 36 µM (inactive); in the experiment with NCI-H460, 14.5 µM (inactive); with SF-268, 76.2 µM (inactive); in the experiment on SK-MEL-2, 27.7 µM (inactive); with SK-MEL-5, 26.1 µM (inactive). Further, the GI50 in the experiment with SK-OV-3 was 60.3 µM (inactive); in the experiment with SN12C, 61.8 µM (inactive); with SR it was 24.4 µM (inactive); with SW-620, 58.3 µM (inactive); with T47D, 29.2 µM (inactive); in the experiment on UACC-62, 18.1 µM (inactive).
